# According to ChEMBL document CHEMBL5053535, “Design, synthesis and biological evaluation of novel aminopyrazole- and 7-azaindole-based Nek1 inhibitors and their effects on zebrafish kidney development” (Bioorg Med Chem Lett, 2021):
# Legend:
# [1] = Toxicity in zebra fish embryos assessed as lethality at 1.5 uM measured after 96 hrs relative to control; assay type: organism-based, Danio rerio; conditions: zebrafish, in vivo, read-out: Activity
# [2] = molecular target: T1, Serine/threonine-protein kinase Nek1 (Homo sapiens) (UniProt Q96PY6); assay: Inhibition of human NEK1 using myelin basic protein as substrate assessed as residual activity at 1 uM in presence of [gamma-33P]-ATP by radiometric hotspot kinase assay relative to control
# T1 sequence (whole entry): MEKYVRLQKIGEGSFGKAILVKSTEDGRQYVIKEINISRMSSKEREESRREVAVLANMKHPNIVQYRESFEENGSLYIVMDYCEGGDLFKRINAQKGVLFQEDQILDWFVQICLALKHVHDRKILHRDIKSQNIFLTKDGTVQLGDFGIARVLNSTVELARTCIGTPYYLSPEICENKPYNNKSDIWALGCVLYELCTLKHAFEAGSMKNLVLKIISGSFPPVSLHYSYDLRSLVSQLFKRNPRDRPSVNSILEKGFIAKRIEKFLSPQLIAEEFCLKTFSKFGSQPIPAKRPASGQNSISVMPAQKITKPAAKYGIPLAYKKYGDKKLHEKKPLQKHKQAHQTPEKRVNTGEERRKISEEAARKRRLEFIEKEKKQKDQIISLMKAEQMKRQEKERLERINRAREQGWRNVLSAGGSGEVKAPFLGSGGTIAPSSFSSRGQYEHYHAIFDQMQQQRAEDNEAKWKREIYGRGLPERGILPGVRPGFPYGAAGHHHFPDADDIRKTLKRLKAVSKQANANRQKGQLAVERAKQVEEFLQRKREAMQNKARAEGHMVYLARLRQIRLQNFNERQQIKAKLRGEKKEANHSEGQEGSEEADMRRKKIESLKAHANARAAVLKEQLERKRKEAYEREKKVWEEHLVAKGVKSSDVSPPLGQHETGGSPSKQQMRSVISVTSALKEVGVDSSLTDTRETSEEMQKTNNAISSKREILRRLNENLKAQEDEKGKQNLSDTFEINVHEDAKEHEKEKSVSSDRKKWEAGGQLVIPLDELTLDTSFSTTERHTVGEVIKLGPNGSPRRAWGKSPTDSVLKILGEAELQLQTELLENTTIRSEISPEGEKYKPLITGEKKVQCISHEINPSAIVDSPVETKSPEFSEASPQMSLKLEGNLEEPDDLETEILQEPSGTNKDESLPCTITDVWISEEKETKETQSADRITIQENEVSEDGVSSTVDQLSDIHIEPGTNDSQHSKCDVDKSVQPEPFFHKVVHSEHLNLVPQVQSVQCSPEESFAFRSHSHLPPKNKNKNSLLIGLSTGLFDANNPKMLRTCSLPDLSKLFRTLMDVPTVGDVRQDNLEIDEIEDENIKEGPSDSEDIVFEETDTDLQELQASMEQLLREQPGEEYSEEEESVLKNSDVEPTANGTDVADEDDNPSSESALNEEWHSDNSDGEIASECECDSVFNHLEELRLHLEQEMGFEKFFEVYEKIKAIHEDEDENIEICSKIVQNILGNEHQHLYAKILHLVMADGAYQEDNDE
# [3] = molecular target: Wee1-like protein kinase (Homo sapiens) (UniProt P30291); assay: Inhibition of human recombinant full length WEE1 expressed in insect cells using MBP as substrate assessed as residual activity at 1 uM pretreated for 20 mins followed by [33P]-ATP addition measured after 120 mins by radiometric hotspot kinase assay relative to control; conditions: time 140.0 min
# [4] = molecular target: T2, Serine/threonine-protein kinase Chk1 (Homo sapiens) (UniProt O14757); assay: Inhibition of human recombinant full length N-terminal His tagged CHK1 expressed in baculovirus infected Sf21 insect cells using CHKtide as substrate assessed as residual activity at 1 uM pretreated for 20 mins followed by [33P]-ATP addition measured after 120 mins by radiometric hotspot kinase assay relative to control; conditions: time 140.0 min
# T2 sequence (whole entry): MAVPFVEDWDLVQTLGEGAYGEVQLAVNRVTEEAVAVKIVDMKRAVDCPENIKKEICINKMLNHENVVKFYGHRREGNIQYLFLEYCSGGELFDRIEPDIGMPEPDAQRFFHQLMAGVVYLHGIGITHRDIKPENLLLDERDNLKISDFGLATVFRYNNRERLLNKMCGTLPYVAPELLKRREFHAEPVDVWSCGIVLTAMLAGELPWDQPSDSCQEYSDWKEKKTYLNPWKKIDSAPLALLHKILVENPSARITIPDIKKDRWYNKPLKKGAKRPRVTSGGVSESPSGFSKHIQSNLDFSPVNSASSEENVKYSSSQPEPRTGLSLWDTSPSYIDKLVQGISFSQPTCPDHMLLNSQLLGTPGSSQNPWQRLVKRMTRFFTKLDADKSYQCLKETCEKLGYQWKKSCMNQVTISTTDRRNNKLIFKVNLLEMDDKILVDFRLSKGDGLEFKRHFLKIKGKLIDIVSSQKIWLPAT
# [5] = Permeability across apical to basolateral side in human Caco-2 cells at pH 6.5 assessed as compound recovery at 1 uM; assay type: ADME, cell-based; conditions: Caco-2, pH 6.5, read-out: Drug recovery
# [6] = Solubility of the compound in DMEM with 1% DMSO by DAD-HPLC based shake flask method; assay type: physicochemical
# [7] = Stability of the compound in DMEM measured after 48 hrs by DAD-HPLC method; assay type: physicochemical; conditions: read-out: Stability
# [8] = species on record: Danio rerio; assay: Toxicity in zebra fish embryos assessed as phenotype changes at 0.01 to 2.5 uM measured after 96 hrs; assay type: organism-based; conditions: zebrafish, in vivo, dose 0.01-2.5 µM
# [9] = molecular target: Vascular endothelial growth factor receptor 2 (Homo sapiens) (UniProt P35968); assay: Inhibition of human recombinant C-terminal His6 tagged VEGFR2 (789 to 1356 residues) expressed in baculovirus infected insect cells assessed as residual activity at 1 uM pretreated for 20 mins followed by [33P]-ATP addition measured after 120 mins by radiometric hotspot kinase assay relative to control; conditions: time 140.0 min
# [10] = molecular target: T3, Serine/threonine-protein kinase Nek1 (Homo sapiens, UniProt Q96PY6); assay: Inhibition of human NEK1 using myelin basic protein as substrate assessed as residual activity in presence of [gamma-33P]-ATP by radiometric hotspot kinase assay relative to control
# T3 sequence (Q96PY6 whole entry): T1 sequence (whole entry)
# [11] = Permeability across basolateral to apical side in human Caco-2 cells at pH 7.4 at 1 uM; assay type: ADME, cell-based; conditions: Caco-2, pH 7.4, read-out: permeability
# [12] = Permeability across apical to basolateral side in human Caco-2 cells at pH 6.5 at 1 uM; assay type: ADME, cell-based; conditions: Caco-2, pH 6.5, read-out: permeability
# [13] = species on record: Danio rerio; assay: (§1) Toxicity in wild type zebra fish model of polycystic kidney disease assessed as increase in fluorescence intensity at 0.5 uM incubated for 48 hrs in presence of N-phenyl thiourea further treated with PT-yellow for 20 mins followed by dye washout and incubated in solution containing compound for 96 hrs by fluorescence imaging analysis; assay type: organism-based; conditions: zebrafish, in vivo
# [14] = Permeability across basolateral to apical side in human Caco-2 cells at pH 7.4 assessed as compound recovery at 1 uM; assay type: ADME, cell-based; conditions: Caco-2, pH 7.4, read-out: Drug recovery
# [15] = Toxicity in zebra fish embryos assessed as lethality at 2.5 uM measured after 24 hrs relative to control; assay type: organism-based, Danio rerio; conditions: zebrafish, in vivo, read-out: Activity
# [16] = Solubility of the compound in E3 medium with 0.2% DMSO by DAD-HPLC based shake flask method; assay type: physicochemical
# [17] = species on record: Danio rerio; assay: as §1, with “minor tubular volume expansion” for “increase in fluorescence intensity”; assay type: organism-based; conditions: zebrafish, in vivo
# Chain of Vascular endothelial growth factor receptor 2 (Homo sapiens) (P35968 whole entry, the tested form may be a part): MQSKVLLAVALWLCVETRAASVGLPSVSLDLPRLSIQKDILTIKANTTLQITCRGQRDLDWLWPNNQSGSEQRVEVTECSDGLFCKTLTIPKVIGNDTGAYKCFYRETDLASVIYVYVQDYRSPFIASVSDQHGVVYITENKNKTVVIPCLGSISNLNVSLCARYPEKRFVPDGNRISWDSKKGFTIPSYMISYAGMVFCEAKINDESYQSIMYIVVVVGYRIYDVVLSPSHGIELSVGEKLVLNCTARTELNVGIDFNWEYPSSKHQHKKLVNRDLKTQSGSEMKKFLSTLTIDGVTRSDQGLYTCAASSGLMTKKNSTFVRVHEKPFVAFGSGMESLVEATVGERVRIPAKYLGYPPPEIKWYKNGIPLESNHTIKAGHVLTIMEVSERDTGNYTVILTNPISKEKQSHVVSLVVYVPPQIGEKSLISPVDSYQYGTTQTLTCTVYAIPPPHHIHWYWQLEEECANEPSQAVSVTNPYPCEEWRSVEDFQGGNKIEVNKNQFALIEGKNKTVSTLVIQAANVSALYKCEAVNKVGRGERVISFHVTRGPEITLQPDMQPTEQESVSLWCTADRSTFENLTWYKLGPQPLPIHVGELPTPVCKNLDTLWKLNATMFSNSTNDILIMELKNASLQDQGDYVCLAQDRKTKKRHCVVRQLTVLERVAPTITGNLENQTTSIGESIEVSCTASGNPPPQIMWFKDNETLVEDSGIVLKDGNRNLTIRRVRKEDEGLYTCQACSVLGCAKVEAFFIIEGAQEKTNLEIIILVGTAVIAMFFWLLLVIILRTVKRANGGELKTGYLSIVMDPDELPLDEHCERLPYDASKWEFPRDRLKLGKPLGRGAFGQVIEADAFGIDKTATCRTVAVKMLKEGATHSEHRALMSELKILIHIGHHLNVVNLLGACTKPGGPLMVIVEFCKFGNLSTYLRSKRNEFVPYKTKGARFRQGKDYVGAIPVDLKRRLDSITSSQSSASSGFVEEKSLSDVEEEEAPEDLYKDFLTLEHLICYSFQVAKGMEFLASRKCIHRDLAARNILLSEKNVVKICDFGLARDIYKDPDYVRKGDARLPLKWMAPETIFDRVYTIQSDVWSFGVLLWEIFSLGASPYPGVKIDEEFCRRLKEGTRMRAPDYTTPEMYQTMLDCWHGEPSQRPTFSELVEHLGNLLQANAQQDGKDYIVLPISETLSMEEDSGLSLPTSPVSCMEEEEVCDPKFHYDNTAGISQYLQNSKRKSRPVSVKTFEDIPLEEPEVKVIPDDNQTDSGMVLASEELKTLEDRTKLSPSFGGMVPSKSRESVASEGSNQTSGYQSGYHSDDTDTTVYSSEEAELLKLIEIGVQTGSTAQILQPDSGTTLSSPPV
# Chain of Wee1-like protein kinase (Homo sapiens) (P30291 whole entry, looked up): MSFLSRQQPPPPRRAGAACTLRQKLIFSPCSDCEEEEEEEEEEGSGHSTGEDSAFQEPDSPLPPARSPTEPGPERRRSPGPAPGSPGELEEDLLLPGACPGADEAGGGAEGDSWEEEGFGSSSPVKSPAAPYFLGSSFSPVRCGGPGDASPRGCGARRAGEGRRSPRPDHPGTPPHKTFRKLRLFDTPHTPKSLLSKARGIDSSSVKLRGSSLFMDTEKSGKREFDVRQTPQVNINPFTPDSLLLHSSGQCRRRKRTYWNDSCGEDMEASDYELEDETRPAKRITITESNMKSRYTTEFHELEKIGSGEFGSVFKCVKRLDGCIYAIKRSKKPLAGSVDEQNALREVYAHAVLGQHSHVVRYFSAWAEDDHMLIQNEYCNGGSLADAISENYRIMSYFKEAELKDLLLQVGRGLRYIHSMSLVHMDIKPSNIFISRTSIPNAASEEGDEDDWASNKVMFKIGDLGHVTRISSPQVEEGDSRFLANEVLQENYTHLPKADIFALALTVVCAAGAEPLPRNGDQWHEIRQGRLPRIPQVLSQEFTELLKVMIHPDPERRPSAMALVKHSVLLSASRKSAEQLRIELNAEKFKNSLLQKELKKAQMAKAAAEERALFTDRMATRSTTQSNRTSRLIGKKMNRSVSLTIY
structure (smiles),measurement,setting,value
COC(=O)c1cccc(-c2cnc3[nH]cc(-c4cccnc4)c3c2)c1,"mortality at 96 h, 1.5 µM",[1],100%
same,Activity,[2],-0.6%
same,Activity,[3],82.1%
same,Activity,[4],48.5%
same,recovery at 1 µM,[5],0.4%
same,solubility,[6],4.3 µM
same,remaining at 48 h,[7],103%
same,Activity,[8],Non-Toxic
same,Activity,[9],34.3%
same,IC50,[10],11.5 nM
same,Papp B→A at 1 µM,[11],0.04 ×10⁻⁶ cm/s
same,Papp A→B at 1 µM,[12],0.13 ×10⁻⁶ cm/s
same,Activity,[13],Toxic
same,recovery at 1 µM,[14],29.6%
same,"mortality at 24 h, 2.5 µM",[15],100%
same,solubility,[16],1.9 µM
same,Activity,[17],Toxic
